Laboratory results taken from article PMC9260180, “Blocking the Farnesyl Pocket of PDEδ Reduces Rheb-Dependent mTORC1 Activation and Survival of Tsc2-Null Cells” (Frontiers in Pharmacology, 2022).
Values joined by “and” are separate entries in the source; they are usually repeats but may differ in a detail not shown here. Identical values can stand only once.

What was measured:
[1] = test system: Caco-2 cells; test: Caco-2 permeability assay
Procedure: To measure cellular permeability, Caco-2 cells were seeded on a transwell membrane in a 24-well format and grown for 3 weeks to form a monolayer of differentiated cells.

[2] = test system: phospho-S6 ribosomal protein (Ser235/236) in Tsc2-null MEFs; test: S6 phosphorylation (pS6) by Western blot in Tsc2-null MEFs; type: cell-based, mouse; details: 0.5-6 µM, 24 h
Procedure: (§1) p53−/− Tsc2+/+ mouse embryonic fibroblast (MEF) and p53−/− Tsc2−/− MEF cells (hereinafter referred to as Tsc2-wt and Tsc2-null MEFs) were kindly provided by David J. Kwiatkowski (Harvard Medical School, Boston, MA, USA). MEF cells were cultured in Dulbecco’s modified Eagles’s medium (DMEM) (Corning, New York, USA), supplemented with 100 μg/ml streptomycin (HyClone), 100 U/ml penicillin (HyClone), 10% fetal bovine serum (Biological Industries, Cromwell, USA) and incubated at 37°C in 5% CO2.
Proteins were extracted in cold lysis buffer (50 mM Tris-HCl pH 7.4; 10% glycerol; 200 mM NaCl2; 2.5 mM MgCl2; 1% Triton X-100; 1/100 protease inhibitors; 1/100 phosphatase inhibitors) and the protein concentration was determined by Bradford assay. […] Immunolabeled proteins were detected using ECL Western Blotting Detection Reagent (GE Healthcare, Chicago, USA) and visualized in Syngene PXi6 Documentation System (Frederick, MD, USA).
For GFP proteins, Tsc2-wt MEF cells were electroporated with 3 µg of pEGFP-C1-RhebWT (GFP-Rheb) or pEGFP-C1 (GFP only) using NEON™ Transfection System (Invitrogen). […] Images were analyzed by confocal fluorescence microscopy using the LSM780 NLO Confocal Spectral Microscope (Carl Zeiss, Jena, Germany).

[3] = test system: phospho-4EBP1 (Thr37/46, Thr70) in Tsc2-null MEFs; test: 4EBP1 phosphorylation by Western blot in Tsc2-null MEFs; type: cell-based, mouse; details: 24 h; for effect on 4EBP1 phosphorylation (p4EBP1 levels, top band): 6 µM; for change in electrophoretic pattern of total and phosphorylated 4EBP1: Deltasonamide 1 6 µM, rapamycin 20 nM
Procedure: as §1
(§2) Proteins were extracted in cold lysis buffer (50 mM Tris-HCl pH 7.4; 10% glycerol; 200 mM NaCl2; 2.5 mM MgCl2; 1% Triton X-100; 1/100 protease inhibitors; 1/100 phosphatase inhibitors) and the protein concentration was determined by Bradford assay. Total proteins were denaturized in loading buffer (50 mM Tris-HCl pH 6.8; 2% SDS; 0.1% bromophenol blue; 10% glycerol; 1% β-mercaptoethanol) by boiling for 5 min, separated by SDS-PAGE, and transferred to Polyvinylidene fluoride (PVDF) membrane (MilliporeSigma, Burlington, USA). For immunoblotting, all primary antibodies were diluted 1:1.000, except for anti-β-Actin antibody (1:10000 dilution). Secondary antibodies were diluted 1:10000. Immunolabeled proteins were detected using ECL Western Blotting Detection Reagent (GE Healthcare, Chicago, USA) and visualized in Syngene PXi6 Documentation System (Frederick, MD, USA).

[4] = test system: Tsc2-null MEFs; test: BrdU assay in Tsc2-null MEFs; type: cell-based, mouse; details: 24 h, Deltasonamide 1 6 µM, rapamycin 20 nM
Procedure: BrdU (5-Bromo-2-deoxyuridine) labeling, and detection kit II (Roche, Basel, Switzerland) were used for the analysis. Briefly, cells were labeled 45 min with 50 µM BrdU and fixed for 20 min at […] with a fixing solution (15 mM glycine pH 2.0, 70% ethanol). Then, cells were incubated with anti-BrdU antibody (1:20 dilution) and nucleases in incubation buffer (66 mM Tris, 0.66 mM MgCl2, 1 mM β-mercaptoethanol) for 30 min at 37°C in a wet chamber. For secondary antibody, Alexa 555 anti-mouse conjugated (1:500 dilution) was used. The nuclei were labeled with Hoechst 33342 diluted 1:250. Finally, the samples were mounted on a slide with DAKO mounting medium. At least 3 images were captured using Olympus CKX41 fluorescence microscope for each condition. BrdU positive cells were analyzed using ImageJ software.

[5] = test system: Tsc2-null MEFs; test: XTT viability assay in Tsc2-null MEFs; type: cell-based, mouse; details: after 24 h, Deltasonamide 1 6 µM, rapamycin 20 nM
Procedure: (§3) We used XTT based-Cell Proliferation Kit (Biological Industries, USA) according to the manufacturer’s instructions to assess cell viability and proliferation. Briefly, Tsc2-null or Tsc2-wt MEF cells were seeded in 96-well plates and grown in DMEM without phenol red (Biological Industries, Cromwell, USA) at 37°C in 5% CO2. […] After 4 h of incubation, viable cells were detected by measuring the absorbance at 450nm/630 nm using TECAN Infinite® 200 PRO microplate reader (Tecan Group Ltd. Männedorf, Switzerland). The results were expressed as a percentage of absorbance relative to the control group.

[6] = test system: Tsc2-wt MEFs; test: XTT viability assay in Tsc2-wt MEFs; type: cell-based, mouse
Procedure: as §3

[7] = test system: mTORC1 signaling in Tsc2-wt MEFs; test: mTORC1 signaling by immunoblotting in Tsc2-wt MEFs; type: cell-based, mouse; details: 4 h and 24 h, Deltasonamide 1 6 µM, rapamycin 20 nM
Procedure: as §2
Supplementary Figure 4. […].
and 24 h (right panel). Lysates were characterized by immunoblotting of the indicated proteins. Results
are representative of three independent experiments.
(§4) (1 picture or pasted object on this page, not shown here)

[8] = test system: Rheb localization in Tsc2-wt MEF cells; test: GFP-Rheb cellular localization by confocal microscopy in Tsc2-wt MEFs; type: cell-based, mouse; details: Tsc2-wt MEF cells with GFP-Rheb, 6 µM, 24 h
Procedure: For GFP proteins, Tsc2-wt MEF cells were electroporated with 3 µg of pEGFP-C1-RhebWT (GFP-Rheb) or pEGFP-C1 (GFP only) using NEON™ Transfection System (Invitrogen). Briefly, 200.000 cells were electroporated with the 10 µl tips at 1100 V for 30 mseg (one pulse). […] Cells were fixed with 4% w/v paraformaldehyde (PFA) for 10 min and permeabilized with 0.1% Triton X-100 in Phosphate-Buffered Saline (PBS) for 30 min. Then, samples were blocked for 1 h with 3% BSA-PBS and incubated overnight with primary antibody (1:200 dilution) in a dark/wet chamber at 4°C. Next, fixed cells were incubated with secondary antibody (1:500 dilution) and Hoechst (1:250 dilution) for 1 h in the dark/wet chamber at room temperature. The coverslips were mounted on a slide with DAKO mounting medium (Agilent, Santa Clara, USA). Images were analyzed by confocal fluorescence microscopy using the LSM780 NLO Confocal Spectral Microscope (Carl Zeiss, Jena, Germany).
Supplementary Figure 5. Deltasonamide 1 affects the cellular localization of Rheb. Tsc2-wt MEF cells were transfected with pEGFP-C1-GFP-RhebWT (GFP -Rheb) or pEGFP-C1 (GFP only) and treated with 6µM Deltas onamide 1 or DMSO for 24 hours. GFP-Rheb and GFP levels were analyzed by immunofluorescence and confocal microscopy. Scale bar = 20 µm.
as §4

[9] = test system: Tsc2-null MEFs; test: Live/Dead and CytoTox-Glo cell assay in Tsc2-null MEFs; details: Deltasonamide 1 6 µM, rapamycin 20 nM; for effect on cell numbers: vs DMSO
[10] = test system: phospho-p70 S6 kinase (Thr389) in Tsc2-null MEFs; test: S6K phosphorylation (Thr389) by Western blot in Tsc2-null MEFs; details: 24 h
Source text: Levels of phospho-p70 S6 kinase (Thr389) (pS6K) were detected by Western blot and measured using densitometric analysis.

[11] = test system: Smad/Smurf; test: yeast two-hybrid LacZ quantitative measurement, Smad/Smurf control interaction; details: 7 and 24 h, titrated concentrations
Procedure: As a control, a yeast two-hybrid was performed using Smad (bait), Smurf (prey), and the empty vectors. To verify positive clones, diploid cells were grown on selective media either lacking tryptophan and leucine (DO-2) or lacking tryptophan, leucine, and histidine (DO-3). To detect lacZ gene expression, diploid cells co-transformed with bait and prey constructs were grown on DO-2 medium supplemented with X-gal substrate. […] To detect lacZ gene expression, diploid cells co-transformed with bait and prey constructs were grown on DO-2 medium supplemented with X-gal substrate. Co-transformed cells able to grow on DO-2 medium and form blue colonies in the presence of X-gal were considered positive bait-prey interaction.

[12] = test system: EGF-induced S6 phosphorylation in pancreatic cancer cell lines; design: method as in Papke et al., 2016; details: another pancreatic cancer cell line; ref Papke et al., 2016; cited from earlier work

| Compound | Caco-2 (pH 6.5/7.4) Papp (A→B) ([1]; 10 µM, 2 h, 37°C) | Caco-2 (pH 6.5/7.4) Papp (B→A) ([1]; 10 µM, 2 h, 37°C) | effect on S6 phosphorylation (pS6) [2] | effect on 4EBP1 phosphorylation (p4EBP1 levels, top band) [3] | change in electrophoretic pattern of total and phosphorylated 4EBP1 [3] | effect on BrdU incorporation [4] | effect on cell viability (XTT) [5] | effect on cell viability (XTT) ([6]; 72 h, Deltasonamide 1 6 µM) | effect on mTORC1 activity/signaling [7] | effect on intracellular Rheb distribution [8] | effect on dead cells ([9]; 24 h) | effect on cell numbers ([9]; 24 h) | effect on percentage of dead cells ([9]; 48 h) | LogIC50 of pS6K levels (Figure 3) ([10]; 0.5–8 µM) | effect on the interaction between Smad and Smurf [11] | effect on cell viability (XTT) ([6]; 48 h, rapamycin 20 nM) | Caco-2 (pH 6.5/7.4) Papp (A→B) ([1]; Caco-2, pH 6.5) | Caco-2 (pH 6.5/7.4) Papp (B→A) ([1]; Caco-2, pH 6.5) | effect on EGF-induced S6 phosphorylation [12] | effect on S6K phosphorylation ([10]; 6 µM) |
| --- | --- | --- | --- | --- | --- | --- | --- | --- | --- | --- | --- | --- | --- | --- | --- | --- | --- | --- | --- | --- |
| CNc1nccc(CN(CC2CCNCC2)S(=O)(=O)c2ccc(S(=O)(=O)N(Cc3ccc(Cl)cc3)C3CCCC3)cc2)n1 [Deltasonamide 1] | 1.6 10^−6 cm/s and 1.56 10^−6 cm/s | 13.67 10^−6 cm/s | dose-dependently reduced | could not detect a significant effect | caused the appearance of lower molecular weight bands | significantly reduced | significantly diminished | reduced | did not affect | disrupted | not associated with an increase in dead cells | significantly decreased | significantly increased | -5.347 | not affected |  |  |  |  |  |
| CO[C@H]1C[C@@H]2CC[C@@H](C)[C@@](O)(O2)C(=O)C(=O)N2CCCC[C@H]2C(=O)O[C@H]([C@H](C)C[C@@H]2CC[C@@H](O)[C@H](OC)C2)CC(=O)[C@H](C)/C=C(\C)[C@@H](O)[C@@H](OC)C(=O)[C@H](C)C[C@H](C)/C=C/C=C/C=C/1C [rapamycin] |  |  |  |  | caused the appearance of lower molecular weight bands | significantly reduced | significantly diminished |  | significantly affected |  |  | significantly decreased |  |  |  | significantly affected |  |  |  |  |
| Cc1ccc(-n2nc3c(=O)n(CCCC(=O)NCC(C)c4ccccc4)nc(C)c3c2C)cc1 (stereo not shown) [Deltazinone 1] |  |  | did not affect | ineffective |  |  |  |  |  |  |  |  |  |  | not affected |  | 41.1 10^−6 cm/s | 25.1 10^−6 cm/s | ineffective | ineffective |
